Tests used:
[1] = Temperature and pH stability assay in phosphate buffers; assay type: physicochemical; conditions: 50 mM phosphate buffer; for half-life at 0.1 mg/mL: phosphate buffer
[2] = Stability assay under reductive conditions; assay type: physicochemical; conditions: PBS buffer with 1.0 mM L-glutathione, pH 7
[3] = Stability assay in human serum; assay type: in vitro ADME; conditions: male, 37 °C

SMILES: CC[C@H](C)[C@@H]1NC(=O)[C@H](Cc2ccc(O)cc2)NC(=O)[C@@H](N)CSSC[C@@H](C(=O)N2CCC[C@H]2C(=O)N[C@@H](CC(C)C)C(=O)NCC(N)=O)NC(=O)[C@H](CC(N)=O)NC(=O)[C@H](CCC(N)=O)NC1=O [OXT, oxytocin]
- half-life ([1]; pH 2.0, 40 °C): 14 ± 0.9 days
- half-life ([1]; pH 4.5, 40 °C): 121 ± 6.2 days
- half-life at 0.1 mg/mL ([1]; pH 2, half-life, pH 2.0, 55 °C): 3.2 days
- half-life at 0.1 mg/mL ([1]; pH 4.5, half-life, pH 4.5, 55 °C): 18 days
- half-life at 0.1 mg/mL ([1]; pH 7, half-life, pH 7.0, 40 °C): 7.2 days
- half-life at 0.1 mg/mL ([1]; pH 7, half-life, pH 7.0, 55 °C): 2 days
- half-life at 0.1 mg/mL ([1]; pH 9, half-life, pH 9.0, 40 °C): 3.9 days
- half-life at 0.1 mg/mL ([1]; pH 9, half-life, pH 9.0, 55 °C): 0.9 days
- half-life at 9.9 µM [2]: 480 min
- half-life at 0.45 mM [3]: 1730 min
